Results on 5 compounds are retold here after patent publication US8431356B2, “Fluorescence resonance energy transfer assays for sarco/endoplasmic reticulum calcium atpase and phospholamban” (Regents of the University of Minnesota, priority 2009, dated 2013).

Assay [1] deals with LNCaP prostate cancer cells. To be noted: administration of thapsigargin; cited from earlier work.
Assay [2] has as its target T1, SERCA (Oryctolagus cuniculus, UniProt P04191).
T1 construct: from tissue
The assay is described as follows: Functional potency of PLB variants by ATPase assay (reconstituted SERCA/PLB). The format is biochemical. As to conditions: shift in pCa for 50% activation of SERCA, 5 PLB/SERCA, mean±SEM. The text has this: (§1) For intermolecular FRET, IAEDANS-SERCA was reconstituted with DABCYL-PLB essentially as described previously (see Reddy et al., (1999) J. Biol. Chem. 274:7649-7655; Reddy et al., (1995) J. Biol. Chem. 270:9390-9397; Reddy et al., (1996) J. Biol. Chem. 271:14964-14970) but adapted to modify the SERCA membrane concentration (molar ratio, SERCA/1000 lipids) and PLB-to-SERCA ratio (molar ratio PLB/SERCA). The desired amount of DABCYL-PLB in methanol and lipids (DOPC and DOPE, 4:1 weight ratio in chloroform) were gently mixed and dried over nitrogen gas to create a thin film. Residual solvent was removed under vacuum and desiccant overnight. Lipids and peptides were solubilized in reconstitution buffer (5 mM MgCl2, 0.1M KCl, 10% glycerol, 20 mM MOPS, pH 7.0) by vortexing thoroughly, followed by mild sonication for 30 seconds to form unilamellar vesicles. C12E8 (2 mg/mg of lipid) was added to the tube. Detergent was removed over a 3 hour period using Biobeads SM2 (25 mg/mg of C12E8). FRET was measured immediately following reconstitution. Samples were frozen until gel electrophoresis.
(§2) ATPase activity was measured using an NADH-linked, enzyme-coupled microtiter plate assay (200 μL/well) as described in Karim et al., (2000) J. Biol. Chem. 276, 38814-9 and Reddy et al., (2003) Biochemistry 42, 4585-92. [Ca2+] was controlled by Ca/EGTA buffering by the method described in Fabiato et al., (1979) J. Physiol. (Paris) 75:463-505. The assays were detected at 340 nm on a Spectramax Plus microplate spectrophotometer (Molecular Devices) at 25° C. in the presence of ionophore A23187 to dissipate the Ca gradient building up across the membranes due to ATPase activity. The data were plotted (V vs pCa) and fitted by the Hill equation: […]
where V is the initial ATPase rate and n is the Hill coefficient. Data were normalized to the maximal rate, Vmax, which was obtained from the fit, and replotted to determine the shift in pKCa.
(§3) Functional potency was measured by ATPase assay as ΔpKCa, which stands for the shift in pCa value required for 50% activation of SERCA, at a ratio of 5 PLB/SERCA. FRET potency was measured as E(5), the energy transfer efficiency found at a ratio of 5 PLB/SERCA (N=4-6, mean±SEM).

Assay [3] addresses T1, SERCA. In words: FRET potency of PLB variants, IAEDANS-SERCA/DABCYL-PLB. The assay is classed as binding. As to conditions: energy transfer efficiency at 5 PLB/SERCA, mean±SEM.
Excerpt: as §1
(§4) The plates were read at 25° C. using a Gemini EM fluorescence microplate reader, with bottom excitation at 350 nm (6 flashes). The spectra were obtained with 10 nm resolution between 420 and 600 nm (PMT sensitivity set to High). Total read time per plate was estimated to be 20 minutes.
The free calcium concentration, [Ca^2+], was controlled by Ca/EGTA buffering, calculated by the method disclosed in Fabiato et al., (1979) J. Physiol. (Paris) 75:463-505. Measurements were conducted in low-Ca (pCa 6.5) buffer (50 mM KCl, 5 mM MgCl2, 0.5 mM EGTA, 210 μM CaCl2, 50 mM MOPS, pH 7.0), where the inhibitory effect of PLB was maximal.
(§5) The fluorescence resonance energy transfer efficiency (E) was calculated from the fractional decrease of steady-state emission of the donor (FD) due to the presence of the acceptor (FDA):
as §3

The test system of assay [4] is SERCA-PLB complex. The assay is described as follows: Competition of LOF PLB mutants with active PLB, ATPase activity. The format is biochemical. As to conditions: 5 moles each per mole SERCA. As to the method: as §2
(§6) The competition of WT-PLB and PLB derivatives was assessed by ATPase activity (e.g., Example 11) and FRET assays (e.g., Example 8). A reconstituted sample containing 5 moles of acceptor-labeled active PLB (WT or I40A) and 5 moles of an unlabeled loss-of-function (LOF) mutant (L31A or S16E) per mole of SERCA was compared with a control, a reconstituted sample with 5 moles of an active PLB (WT or I40A) per mole of SERCA. Competition was measured as the fractional decrease in ΔpKCa or FRET efficiency E, due to the presence of the LOF mutant (N=3-6, mean±SEM).

For assay [5], the system named is SERCA-PLB complex. The assay is described as follows: Competition of LOF PLB mutants with acceptor-labeled active PLB, FRET. The format is binding. As to conditions: 5 moles each per mole SERCA. As to the method: as §4, §5, §6
The mark [6] stands for this setting: competitor vs acceptor-labeled I40A PLB.
[7] abbreviates: competitor vs acceptor-labeled WT PLB.

T1 sequence (P04191 1-994 isoform P04191-2): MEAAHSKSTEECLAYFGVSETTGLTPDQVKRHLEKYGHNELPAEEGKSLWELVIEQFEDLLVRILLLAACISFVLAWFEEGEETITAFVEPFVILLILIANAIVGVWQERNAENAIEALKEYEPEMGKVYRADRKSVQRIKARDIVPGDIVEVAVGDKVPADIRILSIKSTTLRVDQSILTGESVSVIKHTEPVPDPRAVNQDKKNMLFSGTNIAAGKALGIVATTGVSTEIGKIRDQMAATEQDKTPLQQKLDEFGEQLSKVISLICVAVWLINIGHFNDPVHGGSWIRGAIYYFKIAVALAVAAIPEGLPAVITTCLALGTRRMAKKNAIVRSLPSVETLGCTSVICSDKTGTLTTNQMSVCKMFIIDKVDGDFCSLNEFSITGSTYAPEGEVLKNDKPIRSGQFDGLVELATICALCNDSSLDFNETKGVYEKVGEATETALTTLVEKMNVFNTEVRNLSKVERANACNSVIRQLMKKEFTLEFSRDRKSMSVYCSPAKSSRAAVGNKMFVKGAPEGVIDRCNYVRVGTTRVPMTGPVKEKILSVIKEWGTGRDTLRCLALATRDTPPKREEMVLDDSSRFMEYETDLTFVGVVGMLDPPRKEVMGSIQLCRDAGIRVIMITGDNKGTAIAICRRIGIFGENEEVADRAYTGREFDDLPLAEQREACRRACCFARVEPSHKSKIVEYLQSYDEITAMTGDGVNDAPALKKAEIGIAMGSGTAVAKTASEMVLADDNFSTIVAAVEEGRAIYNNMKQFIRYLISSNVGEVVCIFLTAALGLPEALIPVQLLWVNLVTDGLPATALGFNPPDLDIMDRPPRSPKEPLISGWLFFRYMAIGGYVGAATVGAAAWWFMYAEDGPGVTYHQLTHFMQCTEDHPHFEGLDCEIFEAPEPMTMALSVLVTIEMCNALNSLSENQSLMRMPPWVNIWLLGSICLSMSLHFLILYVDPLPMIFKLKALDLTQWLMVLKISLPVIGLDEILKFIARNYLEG

As to `C/C=C(/C)C(=O)O[C@H]1C(C)=C2[C@H]([C@@H]1OC(=O)CCCCCCC)[C@@](C)(OC(C)=O)C[C@H](OC(=O)CCC)[C@@]1(O)[C@H]2OC(=O)[C@@]1(C)O` [thapsigargin], the “growth of LNCaP prostate cancer cells in mice” value in assay [1] is given as “inhibited”.
Regarding “L31A: PLB derivative, leucine to alanine at position 31; loss-of-function (LOF) mutant (MEKVQYLTRSAIRRASTIEMPQQARQKLQNAFINFCLILICLLLICIIVMLL; UniProt P26678 1-52, looked up, variant L31A)”, the “Functional potency (ΔpKCa)” value in the assay with SERCA [2] was found to be 0.05 ± 0.01. For the same compound, the “FRET potency, E(5)” value with SERCA [3] stood at 0.45 ± 0.03. The “Functional relief (fractional decrease in ΔpKCa)” value in the assay with SERCA-PLB complex [4] (competitor vs I40A PLB) came out at 0.47 ± 0.06; in the assay on SERCA-PLB complex [4] (competitor vs WT PLB), 0.79 ± 0.04. In addition, the “FRET relief (fractional decrease in FRET efficiency E)” value in the assay with SERCA-PLB complex [5] (setting [6]) amounted to 0.18 ± 0.12; in the assay with SERCA-PLB complex [5] (setting [7]) it was 0.37 ± 0.06.
“I40A: PLB derivative, isoleucine to alanine at position 40; monomeric, superinhibitory gain-of-function mutant (MEKVQYLTRSAIRRASTIEMPQQARQKLQNLFINFCLILACLLLICIIVMLL; UniProt P26678 1-52, looked up, variant I40A)”: in the assay with SERCA [2], the “Functional potency (ΔpKCa)” value turned out to be 0.48 ± 0.03. Further, the “FRET potency, E(5)” value in the assay with SERCA [3] stood at 0.69 ± 0.03.
On to “S16E: PLB derivative, serine to glutamate at position 16; loss-of-function (LOF) mutant (MEKVQYLTRSAIRRAETIEMPQQARQKLQNLFINFCLILICLLLICIIVMLL; UniProt P26678 1-52, looked up, variant S16E)”, for which the “Functional potency (ΔpKCa)” value with SERCA [2] turned out to be 0.07 ± 0.02. Moreover, the “FRET potency, E(5)” value with SERCA [3] was 0.69 ± 0.02. In addition, the “Functional relief (fractional decrease in ΔpKCa)” value with SERCA-PLB complex [4] (competitor vs I40A PLB) stood at 0.40 ± 0.03; in the assay with SERCA-PLB complex [4] (competitor vs WT PLB), 0.83 ± 0.05. Further, the “FRET relief (fractional decrease in FRET efficiency E)” value worked out at 0.15 ± 0.08 in the assay with SERCA-PLB complex [5] (setting [6]) and 0.27 ± 0.10 in the assay with SERCA-PLB complex [5] (setting [7]).
Consider “WT: wild-type phospholamban (PLB), made by solid-phase peptide synthesis”, for which the “Functional potency (ΔpKCa)” value in the assay with SERCA [2] was 0.18 ± 0.02. In addition, in the assay with SERCA [3], the “FRET potency, E(5)” value was found to be 0.60 ± 0.03.
